These results are taken from ChEMBL document CHEMBL5325391, “Spirolactone-type and enmein-type derivatives as potential anti-cancer agents derived from oridonin” (Bioorg Med Chem, 2022).

In series [1] the test system is K562. Nature of the series: Antiproliferative activity against human K562 cells assessed as reduction in cell growth after 72 hrs by MTT assay. The class given is functional, cell-based. The settings on record: K562, 72 h.
The next series has as its system SW480. Nature of the series: Antiproliferative activity against human SW480 cells assessed as reduction in cell growth after 72 hrs by MTT assay. Type of series: functional, cell-based. To be noted: SW480, 72 h.
For a further series, the system named is MDA-MB-231. Nature of the series: Antiproliferative activity against human MDA-MB-231 cells assessed as reduction in cell growth after 72 hrs by MTT assay. Type of series: functional, cell-based. To be noted: MDA-MB-231, 72 h.
For a further series, the system named is SMMC-7721. Nature of the series: Antiproliferative activity against human SMMC-7721 cells assessed as reduction in cell growth after 72 hrs by MTT assay. To be noted: SMMC-7721, 72 h. The class given is functional, cell-based.
The test system of series [2] is K562. Nature of the series: Potency index, ratio of oridonin IC50 to compound IC50 for antiproliferative activity against human K562 cells after 72 hrs by MTT assay. The class given is functional.
Series [3] in a line: Selectivity index, ratio of IC50 for human L02 cells to IC50 for human SMMC-7721 cells. The settings on record: L02 cells versus SMMC-7721 cells, read-out: Ratio IC50. The class given is toxicity.
The nature of series [4]: Cytotoxicity against human L02 cells incubated for 72 hrs by MTT assay. The class given is toxicity, cell-based.

For the molecule `C=C1C(=O)[C@@]23C(=O)OC[C@]4(C=CCC(C)(C)[C@H]4C=O)[C@@H]2CC[C@@H]1[C@H]3OC(=O)/C=C/c1ccccc1`, the IC50 in the series on K562 [1] was 1500 nM; in the series with SW480, 3550 nM; with MDA-MB-231, 3230 nM; with SMMC-7721 it was 3150 nM.

Regarding `C=C1C(=O)[C@@]23C(=O)OC[C@]4(C=CCC(C)(C)[C@H]4C=O)[C@@H]2CC[C@@H]1[C@H]3OC(=O)/C=C/c1cncnc1`, the concentration for half-maximal inhibition (IC50) with K562 [1] stood at 750 nM; in the series with SW480 it was 980 nM; with MDA-MB-231, 2260 nM; with SMMC-7721 it was 1980 nM.

`C=C1C(=O)[C@@]23C(=O)O[C@H]4CCC(C)(C)[C@H]5C(=O)OC[C@]45[C@H]2CC[C@@H]1[C@H]3OC(=O)/C=C/c1ccnc(F)c1`: the IC50 with K562 [1] was 650 nM; with SW480, 780 nM; in the series with MDA-MB-231, 760 nM; in the series with SMMC-7721, 810 nM.

In the case of `C=C1C(=O)[C@@]23C(=O)OC[C@]4(C=CCC(C)(C)[C@H]4C=O)[C@@H]2CC[C@@H]1[C@H]3OC(=O)/C=C/c1ccncc1`, the “Ratio IC50” value in the series on K562 [2] came out at 7. For the same molecule, the IC50 came out at 590 nM in the series with K562 [1], 820 nM with SW480, 750 nM in the series with MDA-MB-231 and 1710 nM in the series with SMMC-7721.

Take `C=C1C(=O)[C@@]23C(=O)OC[C@]4(C=CCC(C)(C)[C@H]4C=O)[C@@H]2CC[C@@H]1[C@H]3OC(=O)/C=C/c1ccnc(F)c1`: the IC50 amounted to 750 nM with K562 [1], 1110 nM in the series on SW480, 790 nM in the series on MDA-MB-231 and 920 nM in the series on SMMC-7721.

As for `C=C1C(=O)[C@@]23C(=O)OC[C@]4(C=CCC(C)(C)[C@H]4C=O)[C@@H]2CC[C@@H]1[C@H]3OC(=O)/C=C/c1ccncc1OC`, the half-inhibitory concentration (IC50) in the series with K562 [1] amounted to 420 nM; in the series with SW480, 580 nM; in the series with MDA-MB-231, 870 nM; in the series with SMMC-7721, 800 nM.

In the case of `C=C1C(=O)[C@]23[C@H](O)[C@H]1CC[C@H]2[C@@]12CO[C@]3(O)[C@@H](O)[C@@H]1C(C)(C)CC[C@@H]2O` [ORIDONIN], the selectivity ratio in series [3] came out at 1.74. The IC50 in the series with K562 [1] was found to be 4250 nM; with SW480, 10600 nM; in the series with SMMC-7721 it was 14400 nM. The molecule also registered an IC50 at 72 h in series [4] of 25000 nM.

With `C=C1C(=O)[C@@]23C(=O)OC[C@]4(C=CCC(C)(C)[C@H]4C=O)[C@@H]2CC[C@@H]1[C@H]3O`, the half-maximal inhibitory concentration (IC50) worked out at 1270 nM in the series with K562 [1], 2770 nM in the series on SW480, 2860 nM in the series with MDA-MB-231 and 3740 nM with SMMC-7721.

Take `C=C1C(=O)[C@@]23C(=O)OC[C@]4(C=CCC(C)(C)[C@H]4C=O)[C@@H]2CC[C@@H]1[C@H]3OC(=O)/C=C/c1ccc2ccccc2n1`: the concentration for half-maximal inhibition (IC50) was determined as 1230 nM in the series with K562 [1], 3350 nM in the series with SW480, 5160 nM with MDA-MB-231 and 3000 nM in the series on SMMC-7721.

Turning to `C=C1C(=O)[C@@]23C(=O)OC[C@]4(C=CCC(C)(C)[C@H]4C=O)[C@@H]2CC[C@@H]1[C@H]3OC(=O)/C=C/c1ccnc(C)c1`, the half-maximal inhibitory concentration (IC50) in the series with K562 [1] was 980 nM; with SW480, 1690 nM; with MDA-MB-231 it was 1480 nM; in the series with SMMC-7721, 1020 nM.

As to `C=C1C(=O)[C@@]23C(=O)OC[C@]4(C=CCC(C)(C)[C@H]4C=O)[C@@H]2CC[C@@H]1[C@H]3OC(=O)/C=C/c1ccc[nH]1`, the IC50 came to 1440 nM in the series on K562 [1], 2450 nM in the series with SW480, 3990 nM with MDA-MB-231 and 2990 nM in the series with SMMC-7721.

Turning to `C=C1C(=O)[C@@]23C(=O)O[C@H]4CCC(C)(C)[C@H]5C(=O)OC[C@]45[C@H]2CC[C@@H]1[C@H]3OC(=O)/C=C/c1ccncc1F`, the IC50 in the series on K562 [1] came to 680 nM; with SW480, 970 nM; in the series on MDA-MB-231 it was 870 nM; in the series on SMMC-7721, 990 nM.

In the case of `C=C1C(=O)[C@@]23C(=O)O[C@H]4CCC(C)(C)[C@H]5C(=O)OC[C@]45[C@H]2CC[C@@H]1[C@H]3OC(=O)/C=C/c1cncnc1`, the half-maximal inhibitory concentration (IC50) worked out at 930 nM in the series with K562 [1], 1020 nM with SW480, 2170 nM in the series on MDA-MB-231 and 1980 nM in the series with SMMC-7721.

On to `C=C1C(=O)[C@@]23C(=O)OC[C@]4(C=CCC(C)(C)[C@H]4C=O)[C@@H]2CC[C@@H]1[C@H]3OC(=O)/C=C/c1ccc2c(c1)OCO2`, for which the half-maximal inhibitory concentration (IC50) in the series on K562 [1] came to 1850 nM; in the series with SW480, 3490 nM; with MDA-MB-231 it was 3070 nM; in the series on SMMC-7721 it was 3170 nM.

As for `C=C1C(=O)[C@@]23C(=O)OC[C@]4(C=CCC(C)(C)[C@H]4C=O)[C@@H]2CC[C@@H]1[C@H]3OC(=O)/C=C/C`, the half-inhibitory concentration (IC50) was found to be 1880 nM with K562 [1], 3800 nM in the series on SW480, 5120 nM in the series with MDA-MB-231 and 3810 nM with SMMC-7721.

Turning to `C=C1C(=O)[C@@]23C(=O)OC[C@]4(C=CCC(C)(C)[C@H]4C=O)[C@@H]2CC[C@@H]1[C@H]3OC(=O)/C=C/c1ccncc1F`, the IC50 in the series with K562 [1] amounted to 540 nM; in the series on SW480, 730 nM; with MDA-MB-231, 840 nM; in the series with SMMC-7721 it was 620 nM.

With `C=C1C(=O)[C@@]23C(=O)O[C@H]4CCC(C)(C)[C@H]5C(=O)OC[C@]45[C@H]2CC[C@@H]1[C@H]3OC(=O)/C=C/c1ccnc(OC)c1`, the IC50 in the series with K562 [1] was determined as 680 nM; in the series on SW480, 940 nM; in the series on MDA-MB-231, 830 nM; with SMMC-7721, 960 nM.

For the molecule `C=C1C(=O)[C@@]23C(=O)O[C@H]4CCC(C)(C)[C@H]5C(=O)OC[C@]45[C@H]2CC[C@@H]1[C@H]3OC(=O)/C=C/c1ccncc1`, in the series on K562 [2], the “Ratio IC50” value worked out at 8. Also, the IC50 in the series with K562 [1] is 550 nM; with SW480, 700 nM; in the series on MDA-MB-231, 820 nM; in the series on SMMC-7721 it was 840 nM.

Turning to `C=C1C(=O)[C@@]23C(=O)O[C@H]4CCC(C)(C)[C@H]5C(=O)OC[C@]45[C@H]2CC[C@@H]1[C@H]3OC(=O)/C=C/c1ccncc1C`, the IC50 was found to be 910 nM with K562 [1], 760 nM in the series on SW480, 1080 nM with MDA-MB-231 and 1080 nM with SMMC-7721.

As for `C=C1C(=O)[C@@]23C(=O)OC[C@]4(C=CCC(C)(C)[C@H]4C=O)[C@@H]2CC[C@@H]1[C@H]3OC(=O)/C=C/c1ccccn1`, the half-inhibitory concentration (IC50) with K562 [1] turned out to be 560 nM; with SW480 it was 660 nM; in the series with MDA-MB-231, 1260 nM; in the series on SMMC-7721 it was 790 nM.

`C=C1C(=O)[C@@]23C(=O)OC[C@]4(C=CCC(C)(C)[C@H]4C=O)[C@@H]2CC[C@@H]1[C@H]3OC(=O)/C=C/c1ccc2ccccc2c1`: the IC50 was found to be 1890 nM in the series on K562 [1], 3100 nM in the series on SW480, 2430 nM with MDA-MB-231 and 2200 nM in the series with SMMC-7721.

Take `C=C1C(=O)[C@@]23C(=O)OC[C@]4(C=CCC(C)(C)[C@H]4C=O)[C@@H]2CC[C@@H]1[C@H]3OC(=O)/C=C/c1ccsc1`: the IC50 in the series on K562 [1] is 2440 nM; in the series with SW480, 3270 nM; with MDA-MB-231, 3760 nM; in the series with SMMC-7721, 3840 nM.

Regarding `C=C1C(=O)[C@@]23C(=O)O[C@H]4CCC(C)(C)[C@H]5C(=O)OC[C@]45[C@H]2CC[C@@H]1[C@H]3O`, the IC50 in the series with K562 [1] was found to be 5520 nM; with SW480, 6600 nM; in the series on MDA-MB-231, 7620 nM; with SMMC-7721, 5670 nM.

Take `C=C1C(=O)[C@@]23C(=O)OC[C@]4(C=CCC(C)(C)[C@H]4C=O)[C@@H]2CC[C@@H]1[C@H]3OC(=O)/C=C/c1ccco1`: the IC50 amounted to 1820 nM in the series on K562 [1], 2280 nM in the series on SW480, 2920 nM in the series on MDA-MB-231 and 2790 nM in the series with SMMC-7721.
